# “Also recorded” adds a separate entry of the source. Where two headings read alike, the source gives them in different places.
# How the values were obtained:
# AD subjects [1] = assay: Safety extension study: subjects started on memantine hydrochloride; format: in vivo, human; conditions: for Adverse Events during Memantine Co-administration: 401: 180 mg AD101
# Protocol: (§1) Subjects were titrated as follows: all subjects receive 60 mg once daily for the first month, 120 mg once daily for the second month and 180 mg once daily for the third month. Dose increases were dependent on the subject's tolerability of the previous dose.
# [2] = test system: ubiquitin-proteasome system pathway; conditions: cited from earlier work
# Aβ-like deposits = conditions: in vivo; cited from earlier work
# [3] = test system: subjects having probable AD; conditions: cited from earlier work
# AD subjects [4] = assay: 12-week open-label multicenter safety extension study (Study 401) of AD101
# Protocol: as §1
# [5] = test system: long-term potentiation (LTP); conditions: cited from earlier work
# [6] = test system: Ca^2+/calmodulin-dependent protein kinase II (CaMK II); conditions: cited from earlier work
# [7] = test system: pro-ADAM10 and/or BACE protein; conditions: cited from earlier work
# protein kinase C = conditions: cited from earlier work
# [8] = test system: extracellular ACh and dopamine concentrations
# [9] = test system: acetylcholine (ACh) levels; conditions: rodent brains; cited from earlier work
# [10] = test system: amyloid precursor protein; conditions: cited from earlier work
# [11] = test system: nicotine-stimulated release of ACh
# [12] = Total, unique subjects (N = 293)
# [13] = Total, unique subjects (N = 293), denominator 293
# [14] = all doses, safety population 293 subjects
smiles,measurement,setting,value
"O=C1N=C2C=CC=CN2C12Cc1ccccc1C2 [AD101, 1′,3′-dihydro-2H-spiro[imidazo[1,2α]pyridine-3,2′-inden]-2-one]",Laboratory or vitals sign abnormalities,"AD subjects [1]; 5 subjects taking memantine hydrochloride, AD101 up to 180 mg",no clinically significant laboratory or vitals sign abnormalities were observed
same,Adverse Events during Memantine Co-administration,"AD subjects [1]; Subject 03-2003, memantine 5 mg BID ongoing",No new AEs.
same,Adverse Events during Memantine Co-administration,"AD subjects [1]; Subject 14-2108, memantine titrated 5 mg QD to 10 mg BID over 4 weeks",No new AEs.
same,Adverse Events during Memantine Co-administration,"AD subjects [1]; Subject 14-2178, memantine titrated 5 mg QD to 10 mg BID over 4 weeks","Sinus headache ×1 day,; also recorded: Dizzy/lightheaded over 18; also recorded: Vomiting ×1 day, occurred 2"
same,Adverse Events during Memantine Co-administration,"AD subjects [1]; Subject 18-2018, memantine 10 mg QD","Decreased appetite ×9 days; also recorded: UTI ×7 days began 30 days; also recorded: Confusion ×8 days, began 38; also recorded: Anxiety, ongoing at; also recorded: URI ×14 days began 30 days"
same,Adverse Events during Memantine Co-administration,"AD subjects [1]; Subject 18-2122, memantine 10 mg QD",No new AEs.
same,Activity of the ubiquitin-proteasome system pathway,[2],enhance the activity
same,Accumulation of Aβ-like deposits,Aβ-like deposits,decreases accumulation
same,Dose response in primary outcome measures,"[3]; 10, 60 and 120 mg per day analyzed separately",no discernable dose response
same,AD101-related safety concerns,"[3]; up to 120 mg QD, 12 weeks, with 10 mg donepezil hydrochloride QD",No significant AD101-related safety concerns were identified
same,Discontinued Early,AD subjects [4]; 60 mg QD (N = 293),16 n
same,Discontinued Early: Adverse Event,AD subjects [4]; 60 mg QD (N = 293),8 n
same,Discontinued Early: Adverse Event,"AD subjects [4]; 60 mg QD (N = 293), denominator 293",(2.7) %
same,Discontinued Early,AD subjects [4]; 120 mg QD (N = 276),14 n
same,Discontinued Early: Adverse Event,AD subjects [4]; 120 mg QD (N = 276),4 n
same,Discontinued Early: Adverse Event,"AD subjects [4]; 120 mg QD (N = 276), denominator 293",(1.4) %
same,AE: Fatigue,AD subjects [4]; 180 mg (N = 243),0 n
same,AE: Somnolence,AD subjects [4]; 180 mg (N = 243),0 n
same,Discontinued Early,AD subjects [4]; 180 mg QD (N = 243),6 n
same,Discontinued Early: Adverse Event,AD subjects [4]; 180 mg QD (N = 243),5 n
same,Discontinued Early: Adverse Event,"AD subjects [4]; 180 mg QD (N = 243), denominator 293",(1.7) %
same,Safety of 180 mg QD versus lower doses,AD subjects [4]; 180 mg QD vs 60 mg QD and 120 mg QD,at least as safe as
same,New safety or tolerability issues,"AD subjects [4]; 3-month open-label extension, 60 to 180 mg QD",No new safety or tolerability issues were identified
same,Pattern of nature or frequency of specific AE related to dose,"AD subjects [4]; 60, 120, 180 mg",There does not appear to be any pattern related to AD101 dose
same,Relationship of SAEs to study drug (investigator),"AD subjects [4]; SAE #00036: syncope, person on 180 mg",unrelated to study drug with the exception of SAE #00036
same,Discontinued Early,AD subjects [4]; [12],36 n
same,Discontinued Early: Adverse Event,AD subjects [4]; [12],17 n
same,Subjects with any AE,AD subjects [4]; [12],51.2%
same,Discontinued Early,AD subjects [4]; [13],(12.3) %
same,Discontinued Early: Adverse Event,AD subjects [4]; [13],(5.8) %
same,"Serious Adverse Events (SAEs), number of events",AD subjects [4]; [14],17
same,Subjects with Serious Adverse Events,AD subjects [4]; [14],17 subjects
same,SAE Event (individual subject),AD subjects [4]; dose at time of event 60 mg,Asthma; also recorded: Chest Pain; also recorded: Fractured Wrist; also recorded: Seizure; also recorded: Syncope (vasovagal); also recorded: Vestibular neuronitis; also recorded: GI bleed 2°to
same,SAE Event (individual subject),AD subjects [4]; dose at time of event 120 mg,Lightheaded; also recorded: Fractured right; also recorded: Fx Left
same,SAE Event (individual subject),AD subjects [4]; dose at time of event 180 mg,Syncope; also recorded: Fractured; also recorded: Chest Pain; also recorded: Pneumonia/Pulmonary
same,SAE Event (individual subject),AD subjects [4]; dose at time of event N/A (10 days after completing 401),Multiple CVAs
same,Death,"AD subjects [4]; multiple cerebral vascular accidents, deemed unrelated, 10 days post-study after 60, 120 and 180 mg for 4 weeks each",1
same,SAEs by dose at time of event,AD subjects [4]; on 60 mg AD101,7
same,SAEs by dose at time of event,AD subjects [4]; on 120 mg AD101,5
same,SAEs by dose at time of event,AD subjects [4]; on 180 mg AD101,4
same,Long-term potentiation (LTP),[5],enhancement
same,Activity of CaMK II,[6],increased activity
same,Level of pro-ADAM10 and/or BACE protein,[7],decrease the level
same,Activity of protein kinase C,protein kinase C,increased activity
same,Extracellular ACh concentrations,[8]; cerebral cortex,increases
same,Extracellular ACh concentrations,[8]; hippocampus,increases
same,Extracellular dopamine concentrations,[8]; hippocampus,increases
same,Acetylcholine (ACh) levels,[9],increase
same,Cleavage of amyloid precursor protein,[10],induce cleavage
same,Nicotine-stimulated release of ACh,[11],potentiates
